# Measurements published in publication PMC12523804, “Evaluation of molecular mechanisms of (Z)-3-(pentadec-10′-enyl)-catechol (litreol) and synthetic derivatives as inhibitors of human leukotriene biosynthesis” (Redox Biology, 2025).
# Like-named read-outs stand apart in the source and are kept apart here.
# Assays:
# human PMNLs = assay: Lactate dehydrogenase release (LDH assay) in PMNL; format: cell-based
# Experimental: After treatment of PMNL, supernatants were centrifuged (600g × 5 min, 4 °C), and 100 μL of supernatant were mixed with 200 μL LDH reaction buffer (75 mM Tris/HCl, pH 7.4, 0.3 mM NADH, 1.5 mM Na-pyruvate) in a 96-well plate. The decrease of NADH was measured immediately by absorbance at 340 nm in a kinetic mode (every 7 s for 20 min; Multiskan Spectrum). As a positive control for maximal LDH release, cells treated with 1 % Triton X-100 were included in each experiment, while untreated cells and vehicle (DMSO) served as negative controls.
# 5-LO [1] = target: T1, 5-LO (Homo sapiens, UniProt P09917); assay: 5-LO product formation in intact human PMNL (neutrophils); format: cell-based; set-up: endogenous in cells; host or cells: human PMNL from peripheral blood of healthy volunteers; details: intact human PMNL
# T1 sequence (P09917 1-674): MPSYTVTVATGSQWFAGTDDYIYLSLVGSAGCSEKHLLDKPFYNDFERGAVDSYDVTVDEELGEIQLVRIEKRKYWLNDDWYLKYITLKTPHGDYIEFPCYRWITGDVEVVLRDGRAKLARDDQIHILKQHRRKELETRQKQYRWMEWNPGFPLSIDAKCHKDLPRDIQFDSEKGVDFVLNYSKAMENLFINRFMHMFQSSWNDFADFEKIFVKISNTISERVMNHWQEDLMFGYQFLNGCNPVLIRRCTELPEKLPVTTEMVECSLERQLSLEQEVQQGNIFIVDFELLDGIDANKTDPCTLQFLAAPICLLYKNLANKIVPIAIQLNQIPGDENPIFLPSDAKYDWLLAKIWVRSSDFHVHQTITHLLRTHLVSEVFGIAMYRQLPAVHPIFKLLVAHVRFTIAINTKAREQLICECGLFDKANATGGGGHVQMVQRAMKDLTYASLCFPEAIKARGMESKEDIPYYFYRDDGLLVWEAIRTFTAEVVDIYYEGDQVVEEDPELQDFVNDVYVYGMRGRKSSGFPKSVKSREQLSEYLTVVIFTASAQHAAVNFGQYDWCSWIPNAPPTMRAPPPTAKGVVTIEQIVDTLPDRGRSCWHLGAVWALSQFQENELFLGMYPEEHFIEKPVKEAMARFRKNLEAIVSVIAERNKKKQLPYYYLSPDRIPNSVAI
# Experimental: PMNL and monocytes were isolated from human peripheral blood of adult healthy volunteers, with consent, obtained from the Institute of Transfusion Medi-cine, University Hospital Jena (Germany). PMNL were immediately isolated by dextran sedi-mentation, centrifugation on Nycoprep cushions, and hypotonic lysis of erythrocytes, as described. PMNL viability was analyzed by trypan blue exclusion with a Vi-cell counter (Beckmann Coulter GmbH, Krefeld). HEK-293 cells were grown in DMEM/High Glucose (4.5 g/L) medium supplemented with heat-inactivated fetal calf serum (FCS, 10 %, vv_1), 100 U/mLpenicillin, and 100 µg/mL streptomycin at 37 °C in a 5 % CO2 incubator. HEK-293 cells were stably transfected with 5-LO and FLAP as validated experimental cell-based model for studying the regulation of 5-LO [28]. None of the cell lines used in this study were authenticated.
# Freshly isolated human PMNL (5 × 10^6) were resuspended in 1 mL PBS buffer containing 1 mg/mL glucose (PG buffer). […] After 10 min at 37 °C, the reaction was stopped with 1 mL of methanol for 10 min on ice and LO products formed and released in the supernatants were extracted and analyzed by HPLC. In detail, after centrifugation (800g, 10 min, room temperature) the samples were applied to C-18 solid-phase extraction columns (100 mg; IST, Mid Glamorgan, United Kingdom), preconditioned with 1 mL methanol and 1 mL water. The columns were washed with 1 mL water and 1 mL water/methanol (75/25, vol/vol) and 5-LO metabolites were eluted with 300 μL methanol. The extract was then diluted with 120 μL water, and 100 μL diluted extract were analyzed by HPLC using a C-18 Radial-Pak column (Waters) eluted with methanol/water/acetic acid 75/25/0.1 (vol/vol/vol) at a flow rate of 1.2 mL/min. Amounts of different metabolites were determined by peak area integration. 5-LO products analyzed include LTB4 and its two all-trans isomers, 5(S)-hydroxy-6-trans-8,11,14-cis-eicosatetraenoic acid (5-HETE), and 5(S)-hydroper-oxy-6-trans-8,11,14-cis-eicosatetraenoic acid (5-HpETE). 5-HETE and 5-HpETE coelute as one major peak, and the integration of this peak represented both eicosanoids.
# 12-LO = target: T2, 12-LO (Homo sapiens, UniProt P18054); assay: 12-LO product formation in intact human PMNL; format: cell-based; details: for IC50: PMNL, 2.5 μM A23187 plus 20 μM AA, read-out: LTC4; for effect on 12-LO activity: at 10 μM
# T2 construct: endogenous in cells; host or cells: human PMNL preparations
# T2 sequence (P18054 1-663): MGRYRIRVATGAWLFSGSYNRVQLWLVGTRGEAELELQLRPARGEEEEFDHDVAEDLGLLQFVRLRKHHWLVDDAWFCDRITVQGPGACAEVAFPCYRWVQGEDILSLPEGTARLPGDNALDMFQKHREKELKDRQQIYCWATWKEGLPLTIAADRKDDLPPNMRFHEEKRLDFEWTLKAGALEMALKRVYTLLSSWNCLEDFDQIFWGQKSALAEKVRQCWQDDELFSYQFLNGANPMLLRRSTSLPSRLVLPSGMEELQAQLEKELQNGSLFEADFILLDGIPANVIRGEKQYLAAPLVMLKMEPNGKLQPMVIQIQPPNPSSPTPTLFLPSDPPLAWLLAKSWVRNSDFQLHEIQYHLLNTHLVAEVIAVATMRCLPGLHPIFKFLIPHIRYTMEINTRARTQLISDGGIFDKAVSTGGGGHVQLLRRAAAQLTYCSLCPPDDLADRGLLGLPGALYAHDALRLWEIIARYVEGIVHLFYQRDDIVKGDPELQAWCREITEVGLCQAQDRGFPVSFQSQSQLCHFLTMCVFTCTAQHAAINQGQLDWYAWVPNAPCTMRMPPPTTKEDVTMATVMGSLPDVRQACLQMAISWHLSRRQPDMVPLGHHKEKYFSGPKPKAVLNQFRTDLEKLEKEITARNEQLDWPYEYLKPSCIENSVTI
# 5-LO [2] = target: T1, 5-LO; assay: cell-free 5-LO activity assay with purified human recombinant 5-LO; format: biochemical; set-up: made in house; details: for IC50: purified human recombinant 5-LO, 20 μM AA, read-out: Cell-free (IC50 of 5-LO activity); for 5-LO inhibition in the cell free assay: up to 10 μM
# Experimental: 5-LO was expressed in E. coli B121 (DE3) transformed with pT3- 5LO plasmid, and purification of 5-LO was performed as described previously. Briefly, E. coli was lysed in 50 mM tri-ethanolamine/HCl, pH 8.0, 5 mM EDTA, […] soybean trypsin inhibitor, 1 mM phenylmethanesulfonyl fluoride, 1 mM dithiothreitol and 1 mg/mL lysozyme and then sonified (3 × 15 s). The homogenate was then centrifuged at 40,000g for 20 min at 4°C. 5-LO in the supernatant was partially purified by affinity chromatography on an ATP-agarose column (Sigma-Aldrich). Semi-purified 5-LO was diluted in PBS containing EDTA (1 mM) and ATP (1 mM) and immediately used for 5-LO activity assays. Samples were pre-incubated with the test compounds or vehicle (0.1 % DMSO) for 10 min at 4°C. Samples were pre-warmed for 30 s at 37°C, and 2 mM CaCl2 plus the indicated concentrations of AA were added to start 5-LO product formation. The reaction was stopped after 10 min by addition of one volume of ice-cold methanol, and the formed metabolites were analyzed by HPLC. 5- LO products include the all-trans isomers of LTB4 as well as 5-HPETE and its corresponding alcohol 5-HETE.
# 5-LO [3] = system: 5-LO; set-up: method as in PMID 23871907; details: cited from earlier work
# mPGES-1 = system: mPGES-1; set-up: method as in PMID 23871907; details: cited from earlier work
# 5-lipoxygenase (5-LO) [4] = target: 5-lipoxygenase (5-LO); set-up: method as in PMID 31523435; details: read-out: IC50 in isolated human neutrophils; cited from earlier work
# 5-lipoxygenase (5-LO) [5] = target: 5-lipoxygenase (5-LO); set-up: method as in PMID 31523435; details: read-out: IC50 in whole blood; cited from earlier work
# [6] = […] A23187 plus 20 μM AA, 10 min, read-out: Cell-based A23187 + AA (IC50 of 5-LO product formation)
SMILES,cytotoxicity on PMNL (LDH levels in the supernatants) (human PMNLs),"IC50 (5-LO [1]; […] A23187, 10 min, read-out: Cell-based A23187 (IC50 of 5-LO product formation)) [µM]",IC50 (5-LO [1]; [6]) [µM],IC50 (12-LO) [µM],effect on 12-LO activity (12-LO),IC50 (5-LO [2]) [µM],5-LO inhibition in the cell free assay (5-LO [2]),IC50 (5-LO [3]) [µM],IC50 (mPGES-1) [µM],IC50 (5-lipoxygenase (5-LO) [4]) [µM],IC50 (5-lipoxygenase (5-LO) [5]) [µM]
"CCCC/C=C\CCCCCCCCCc1cccc(OC(C)=O)c1OC(C)=O [AI, (Z)-1,2-diacetoxy-3-(pentadec-10′-enyl)-benzene]",comparable to those of untreated controls,> 10,1.5 ± 1.4,> 10,no significant effect,> 10,No significant 5-LO inhibition,,,,
CCCCCCCCCCCC1=C(O)C(=O)C=C(O)C1=O [embelin],,,,,,,,0.06,0.2,,
"O=C(/C=C/c1ccc(O)c(O)c1)OCCc1ccccc1 [CAPE, Caffeic acid phenethyl ester]",,,,,,,,,,0.5,1.8
"CCCCCCCCCCCCCCCc1cccc(OC(C)=O)c1OC(C)=O [AS, 1,2-diacetoxy-3-pentadecylbenzene]",comparable to those of untreated controls,,> 10,> 10,no significant effect,> 10,No significant 5-LO inhibition,,,,
